The target of the experiment is T1, IGF-1R (Homo sapiens, UniProt P08069).
T1 construct: expressed in transfected cells
Kind of experiment: Example B-2: IGF-1R Assay (PathHunter cell lines, EC80 agonist challenge, chemiluminescent detection). Type of experiment: cell-based. The conditions noted are these: PathHunter cells, compound 60 minutes at 37° C., EC80 agonist 3 hours; read-out: IC50, Biological Activity against IGF-1R (Table B2). In a few lines: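 PathHunter cells were pre-incubated with compound for 60 min at 37° C (1% vehicle), then challenged with EC80 agonist for 3 h at room temperature. Chemiluminescent detection after 1 h gave % inhibition relative to EC80 and vehicle controls, from which IC50 was derived.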

pIC50: −log10 of the molar value.

T1 sequence (P08069 31-1367): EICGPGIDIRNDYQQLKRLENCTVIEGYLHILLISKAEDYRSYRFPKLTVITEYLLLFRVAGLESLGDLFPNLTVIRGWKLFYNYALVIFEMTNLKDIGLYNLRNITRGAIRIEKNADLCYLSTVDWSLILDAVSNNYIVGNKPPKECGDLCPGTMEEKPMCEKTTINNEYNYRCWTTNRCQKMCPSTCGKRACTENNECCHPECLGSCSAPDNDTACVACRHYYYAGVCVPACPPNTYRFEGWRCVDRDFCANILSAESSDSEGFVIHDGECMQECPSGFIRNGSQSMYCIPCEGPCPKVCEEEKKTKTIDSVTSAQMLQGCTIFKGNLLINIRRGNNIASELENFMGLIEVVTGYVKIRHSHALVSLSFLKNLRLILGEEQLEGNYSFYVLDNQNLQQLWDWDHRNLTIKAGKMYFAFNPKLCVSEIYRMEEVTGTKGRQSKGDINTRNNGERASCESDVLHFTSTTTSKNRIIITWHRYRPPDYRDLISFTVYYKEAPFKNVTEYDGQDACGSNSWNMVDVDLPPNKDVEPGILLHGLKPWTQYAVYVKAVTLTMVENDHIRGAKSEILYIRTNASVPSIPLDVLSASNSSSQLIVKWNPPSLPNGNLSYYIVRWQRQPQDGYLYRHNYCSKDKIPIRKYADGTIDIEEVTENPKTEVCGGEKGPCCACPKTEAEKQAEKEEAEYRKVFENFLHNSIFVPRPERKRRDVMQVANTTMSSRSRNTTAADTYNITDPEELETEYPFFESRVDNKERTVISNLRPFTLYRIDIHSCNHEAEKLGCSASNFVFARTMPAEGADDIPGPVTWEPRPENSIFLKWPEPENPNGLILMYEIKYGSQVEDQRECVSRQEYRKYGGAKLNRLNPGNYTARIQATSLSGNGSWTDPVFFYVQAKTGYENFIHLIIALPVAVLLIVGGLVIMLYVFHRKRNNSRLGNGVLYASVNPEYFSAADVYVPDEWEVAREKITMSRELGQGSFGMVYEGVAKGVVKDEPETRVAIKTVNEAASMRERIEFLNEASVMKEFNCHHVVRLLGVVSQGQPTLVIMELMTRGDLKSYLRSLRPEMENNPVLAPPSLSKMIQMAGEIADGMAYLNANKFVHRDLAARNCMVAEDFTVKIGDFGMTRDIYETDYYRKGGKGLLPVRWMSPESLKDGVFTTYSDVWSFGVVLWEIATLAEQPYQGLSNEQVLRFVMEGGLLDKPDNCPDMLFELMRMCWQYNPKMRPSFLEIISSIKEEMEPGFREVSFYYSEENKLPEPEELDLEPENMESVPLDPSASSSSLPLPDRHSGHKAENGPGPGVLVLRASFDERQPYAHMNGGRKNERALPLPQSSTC

Turning to `C[C@H](Nc1cc(CN2C(=O)N(c3ccc(S(=O)(=O)C(F)(F)F)cc3)C(=O)C2(C)C)ccn1)[C@@H]1CCCO1` [Compound 339, 5,5-dimethyl-1-((2-(((S)-1-((S)-tetrahydrofuran-2-yl)ethyl)amino)pyridin-4-yl)methyl)-3-(4-((trifluoromethyl)sulfonyl)phenyl) imidazolidine-2,4-dione], the pIC50 was 5.70 to 6.30. Under `C[C@H](Nc1cc(CN2C(=O)N(c3ccc(S(=O)(=O)C(F)(F)F)cc3)C(=O)C2(C)C)ccn1)[C@H]1CCCO1` [Compound 340, 5,5-dimethyl-1-((2-(((S)-1-((R)-tetrahydrofuran-2-yl)ethyl)amino)pyridin-4-yl)methyl)-3-(4-((trifluoromethyl)sulfonyl)phenyl) imidazolidine-2,4-dione] stands 5.00 to 5.70; under `C[C@@H](Nc1cc(CN2C(=O)N(c3ccc(S(=O)(=O)C(F)(F)F)cc3)C(=O)C2(C)C)ccn1)[C@@H]1CCCO1` [Compound 341, 5,5-dimethyl-1-((2-(((R)-1-((S)-tetrahydrofuran-2-yl)ethyl)amino)pyridin-4-yl)methyl)-3-(4-((trifluoromethyl)sulfonyl)phenyl) imidazolidine-2,4-dione], 5.70 to 6.30.

For the compound `C[C@@H](Nc1cc(CN2C(=O)N(c3ccc(S(=O)(=O)C(F)(F)F)cc3)C(=O)C2(C)C)ccn1)[C@H]1CCCO1` [Compound 342, 5,5-dimethyl-1-((2-(((R)-1-((R)-tetrahydrofuran-2-yl)ethyl)amino)pyridin-4-yl)methyl)-3-(4-((trifluoromethyl)sulfonyl)phenyl) imidazolidine-2,4-dione], the pIC50 is 5.00 to 5.70.

For the compound `CC1(C)C(=O)N(c2ccc(S(=O)(=O)C(F)(F)F)cc2)C(=O)N1Cc1ccnc(N[C@H]2CCOCC2(F)F)c1` [Compound 343, (S)-1-((2-((3,3-difluorotetrahydro-2H-pyran-4-yl)amino)pyridin-4-yl)methyl)-5,5-dimethyl-3-(4-((trifluoromethyl)sulfonyl)phenyl) imidazolidine-2,4-dione], the pIC50 was 5.00 to 5.70. `Cn1cc(CNc2cc(CN3C(=O)N(c4ccc(S(=O)(=O)C(F)(F)F)cc4)C(=O)C3(C)C)ccn2)cn1` [Compound 344, 5,5-dimethyl-1-((2-(((1-methyl-1H-pyrazol-4-yl)methyl)amino)pyridin-4-yl)methyl)-3-(4-((trifluoromethyl)sulfonyl)phenyl) imidazolidine-2,4-dione]: the pIC50 was ≥ 6.30.

Turning to `CC(C)Nc1cc(CN2C(=O)N(c3ccc(S(=O)(=O)C4CC4)cc3)C(=O)C2(C)C)ccn1` [Compound 353, 3-(4-(cyclopropylsulfonyl)phenyl)-1-((2-(isopropylamino)pyridin-4-yl)methyl)-5,5-dimethylimidazolidine-2,4-dione], the pIC50 is 5.70 to 6.30.

`CC(C)Nc1cc(CN2C(=O)N(c3ccc(S(=O)(=O)C(C)(C)C)cc3)C(=O)C2(C)C)ccn1` [Compound 354, 3-(4-(tert-butylsulfonyl)phenyl)-1-((2-(isopropylamino)pyridin-4-yl)methyl)-5,5-dimethylimidazolidine-2,4-dione]: the pIC50 was 5.70 to 6.30.

Turning to `CC1(Nc2cc(CN3C(=O)N(c4ccc(S(=O)(=O)C(F)(F)F)cc4)C(=O)C3(C)C)ccn2)CC1` [Compound 355, 5,5-dimethyl-1-((2-((1-methylcyclopropyl)amino)pyridin-4-yl)methyl)-3-(4-((trifluoromethyl)sulfonyl)phenyl)imidazolidine-2,4-dione], the pIC50 is ≥ 6.30. Under `CC1(C)C(=O)N(c2ccc(S(=O)(=O)C(F)(F)F)cc2)C(=O)N1Cc1ccnc(NC2CC2)c1` [Compound 356, 1-((2-(cyclopropylamino)pyridin-4-yl)methyl)-5,5-dimethyl-3-(4-((trifluoromethyl)sulfonyl)phenyl)imidazolidine-2,4-dione] stands ≥ 6.30.

Values taken from patent US20250145585A1, “HETEROCYCLIC INHIBITORS OF IGF-1R FOR TREATMENT OF DISEASE” (HORIZON THERAPEUTICS IRELAND DAC, priority 2023, published 2025).
